The test system of one assay is collateral blood vessels. Nature of the assay: Selective vasodilative effect on collateral blood vessels (coronary vascular resistance, method of Winburg et al.). Type of assay: in vivo. The conditions noted are these: anaesthetized dogs, test compound 30 ug/kg intravenously vs glyceryl trinitrate 3 µg/kg; for Glyceryl trinitrate ratio RL/RT: ratio of selectivity (RL/RT) of test compound to that of glyceryl trinitrate; for Glyceryl trinitrate ratio RL: ratio of vascular resistance (RL) of test compound to that of glyceryl trinitrate. The protocol:
The test animals employed in this experiment were dogs. Each animal was anaesthetized with pentobarbital and the chest was opened to expose the heart, whilst respiration was maintained artificially.
Following the method of Winburg et al. [J. Pharmacol. Exp. Ther., 168, 70-95 (1969)], the vascular resistance (RL) between two points, one at a large coronary artery on the cardiac surface and the other at a small coronary artery, was calculated by dividing the blood pressure difference between these two points by the blood flow. The peripheral resistance of the coronary artery (RT) was determined and the value RL was divided by the value RT, to give the selectivity (RL/RT).
Each compound of the invention tested was administered intravenously at a dose of 30 ug/kg body weight immediately prior to the measurement of vascular resistance. The same experiment was carried out employing glyceryl trinitrate at a dose of 3 µg/kg body weight and the results are reported in the following Table 1 as the glyceryl trinitrate ratios, i.e. the ratio between the vascular resistance of the test compound and that of glyceryl trinitrate or the selectivity of the test compound and that of glyceryl trinitrate.

Assay [1] has as its system right atrium of a guinea pig heart. Nature of the assay: Effect on heart beat: spontaneous contraction of excised right atrium. The conditions noted are these: for inhibition at 100 µg/mL: Concentration 1x10^-4 g/ml; for inhibition at 30 µg/mL: Concentration 3x10^-5 g/ml. As to the method:
The right atrium of a guinea pig heart was excised and placed in a bath containing Krebs - Henseleit solution maintained at 37°C, through which was bubbled a gas containing 95% oxygen and 5% carbon dioxide. […] The results, in terms of the percentage decrease (-) or increase (+) in the rate of heart beat, for the compounds of the invention and for glyceryl trinitrate are shown in Table 2.

Setting [2] is: Cavia porcellus, Krebs - Henseleit solution, 37°C, read-out: percentage decrease (-) or increase (+) in the rate of heart beat.
Setting [3] is: Cavia porcellus, Concentration 1x10^-5 g/ml, Krebs - Henseleit solution, 37°C, read-out: percentage decrease (-) or increase (+) in the rate of heart beat.
The mark [4] stands for this setting: Cavia porcellus, read-out: percentage decrease (-) or increase (+) in the rate of heart beat.

Molecules are shown by their SMILES. Like-named read-outs stand apart in the source and are kept apart here.

Consider `CCN(CC)CCOc1ccc2c(c1)C(=O)N(CCO[N+](=O)[O-])C2=O` [Compound No. 25, N-(2-nitrooxyethyl)-4-(2-N,N-diethylaminoethoxy)-phthalimide], for which, in the assay on collateral blood vessels, the “Glyceryl trinitrate ratio RL/RT” value is 1.6 and the “Glyceryl trinitrate ratio RL” value turned out to be 1.6. Besides, in assay [1] (setting [2]), the inhibition at 100 µg/mL came out at 73% and the inhibition at 30 µg/mL worked out at 67%. Moreover, the inhibition at 10 µg/mL in assay [1] (setting [3]) amounted to 53%.
Turning to `CC(C)N(CCOc1ccc2c(c1)C(=O)N(CCO[N+](=O)[O-])C2=O)C(C)C` [Compound No. 27, N-(2-nitrooxyethyl)-4-(2-N,N-diisopropylamino-ethoxy)phthalimide], in the assay on collateral blood vessels, the “Glyceryl trinitrate ratio RL/RT” value was found to be 1.4 and the “Glyceryl trinitrate ratio RL” value was determined as 1.8. In assay [1] (setting [2]), the inhibition at 100 µg/mL was 71% and the inhibition at 30 µg/mL was found to be 64%. Further, in assay [1] (setting [3]), the inhibition at 10 µg/mL is 59%.
Regarding `CN(C)CCCOc1ccc2c(c1)C(=O)N(CCO[N+](=O)[O-])C2=O` [Compound No. 51, N-(2-nitrooxyethyl)-4-(3-N,N-dimethylamino-propoxy)phthalimide], in the assay with collateral blood vessels, the “Glyceryl trinitrate ratio RL/RT” value is on record as 1.4 and the “Glyceryl trinitrate ratio RL” value amounted to 1.6. Moreover, in assay [1] (setting [2]), the inhibition at 100 µg/mL was 64% and the inhibition at 30 µg/mL is 58%. The inhibition at 10 µg/mL in assay [1] (setting [3]) is 31%.
Taken in the same sequence, the figures for `CC(COc1ccc2c(c1)C(=O)N(CCO[N+](=O)[O-])C2=O)CN(C)C` (centres unmarked) [Compound No. 54, N-(2-nitrooxyethyl)-4-(3-N,N-dimethylamino-2-methylpropoxy)phthalimide] were 2.1, 1.7, 62%, 56% and 37%.
Taken in the same sequence, the figures for `O=C1c2ccc(OCCN3CCCCC3)cc2C(=O)N1CCO[N+](=O)[O-]` [Compound No. 59, N-(2-nitrooxyethyl)-4-(2-piperidinoethoxy)-phthalimide] were 1.6, 1.2, 74%, 61% and 32%.
Regarding `O=[N+]([O-])OCC(CO[N+](=O)[O-])O[N+](=O)[O-]` [Glyceryl trinitrate, reference compound], in assay [1] (setting [4]), the inhibition at 1 µg/mL worked out at 0%, the inhibition at 3 µg/mL is -1% and the inhibition at 10 µg/mL came to 0%. In addition, in assay [1] (added at doses between 10^-6 and 10 ^5 g/ml), the “change in the heart beat” value is given as “very little or no change”.

These data come from EP0171977A1, “Phthalimide derivatives, compositions containing them and a process for preparing them” (SANKYO COMPANY LIMITED, priority 1984, dated 1986).
